Laboratory results published in article PMC4013053, “Identification of Selective Small Molecule Inhibitors of the Nucleotide-Binding Oligomerization Domain 1 (NOD1) Signaling Pathway” (PLoS ONE, 2014).

How the values were obtained:
[1] = system: NOD1 induced NF-κB and MAPK pathways; experiment: Western blotting of IκBα and phospho-MAPKs in Tri-DAP stimulated 293/hNOD1 cells; assay type: cell-based, human; conditions: 50 µg/mL Tri-DAP 1 hour, immunoblotting
Protocol: Confluent cultures of 293/hNOD1 and -hNOD2 cells seeded in 24-well plates were serum-starved over-night, pre-incubated for 1 hour with compound and then stimulated for 1 hour with either 50 µg/mL Tri-DAP or 25 µg/mL MDP, respectively. Whole cell lysates were prepared in 1X cell lysis buffer (Cell Signaling Technology) supplemented with additional protease, aminopeptidase and phosphatase inhibitors (protease inhibitor cocktail set III, EMD Biosciences; phosphatase inhibitor sets II and III, Sigma-Aldrich). The levels of phosphorylated and total p38, JNK, ERK1/2 and total IκBα were determined by immunoblotting of ∼20 µg protein per sample using the following primary antibodies: phospho-p38 MAPK (12F8, #4631), p38 MAPK (#9212), phospho-JNK (#9251), JNK (#9252) and IκBα (#9242) all purchased from Cell Signaling Technology, and phospho-ERK1/2 (sc-7383) and ERK1/2 (sc-94) antibodies from Santa Cruz Biotechnology.

NOD2 = NOD2 (Homo sapiens, UniProt Q9HC29); experiment: MDP-stimulated IL-8 secretion in primary human monocytes; assay type: cell-based; parameters: Monocytes were purified from heparinized human whole blood; endogenous in cells; host or cells: primary human blood monocytes
Protocol: Monocytes were purified from heparinized human whole blood by centrifugation on Ficoll (Histopaque 1077) followed by Percoll gradients. Monocyte purity was >95% by morphological assessment of Wright’s stained cytospins. Cells were seeded at 100,000 per well in 96-well plates in RPMI containing 10%HI-FBS, pre-incubated for 1 hour with compounds, and then stimulated with either 25 µg/mL Tri-DAP or 1 µg/mL MDP. The concentration of IL-8 in medium samples collected after 24-hour treatment was determined by HTRF whereas IL-1β, IL-6 and TNFα were measured using the MS6000 human pro-inflammatory-4 II tissue culture kit (Meso Scale Discovery).

TLR4 = system: TLR4; parameters: method as in PMID 22870324; conditions: human lung microvascular endothelial cells; cited from earlier work

NOD2, sequence (Q9HC29 whole entry): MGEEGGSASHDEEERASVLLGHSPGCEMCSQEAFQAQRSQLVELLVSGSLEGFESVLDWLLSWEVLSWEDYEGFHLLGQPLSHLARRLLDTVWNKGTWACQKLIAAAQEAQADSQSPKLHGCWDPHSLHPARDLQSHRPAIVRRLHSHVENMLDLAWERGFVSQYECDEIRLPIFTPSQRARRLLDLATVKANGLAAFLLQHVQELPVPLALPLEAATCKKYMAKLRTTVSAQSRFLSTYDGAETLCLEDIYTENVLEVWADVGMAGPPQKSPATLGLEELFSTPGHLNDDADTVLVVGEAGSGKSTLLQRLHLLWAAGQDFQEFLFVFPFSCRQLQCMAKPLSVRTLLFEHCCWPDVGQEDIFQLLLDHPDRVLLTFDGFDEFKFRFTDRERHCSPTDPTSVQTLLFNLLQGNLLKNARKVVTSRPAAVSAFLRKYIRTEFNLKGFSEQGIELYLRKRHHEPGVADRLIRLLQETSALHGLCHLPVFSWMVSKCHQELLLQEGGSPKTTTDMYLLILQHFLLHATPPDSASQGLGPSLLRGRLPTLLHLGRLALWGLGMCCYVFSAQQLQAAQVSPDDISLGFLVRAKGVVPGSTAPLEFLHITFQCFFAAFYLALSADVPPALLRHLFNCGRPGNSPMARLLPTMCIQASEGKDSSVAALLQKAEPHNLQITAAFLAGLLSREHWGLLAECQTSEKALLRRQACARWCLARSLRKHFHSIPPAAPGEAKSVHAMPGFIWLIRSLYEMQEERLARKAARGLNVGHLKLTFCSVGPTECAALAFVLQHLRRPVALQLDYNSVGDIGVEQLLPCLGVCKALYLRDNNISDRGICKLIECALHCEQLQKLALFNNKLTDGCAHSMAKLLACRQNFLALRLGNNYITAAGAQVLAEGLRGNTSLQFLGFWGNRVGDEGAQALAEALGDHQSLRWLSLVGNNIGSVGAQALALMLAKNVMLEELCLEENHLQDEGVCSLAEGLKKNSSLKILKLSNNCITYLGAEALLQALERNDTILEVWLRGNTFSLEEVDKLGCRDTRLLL

SMILES | effect on Tri-DAP induced p-JNK, p-p38 and IκBα responses [1] | effect on MDP induced IL-8 secretion (NOD2) | effect on IL-8 release, LPS stimulated (TLR4)
Cc1ccc(S(=O)(=O)Nc2cccc(C(=O)Nc3ccc4nc(C)sc4c3)c2)cc1 [Compound 16] | reduced both phospho-JNK and the weaker phospho-p38 levels while levels of IκBα were increased |  | 
Cc1nc2ccccc2c(=O)n1-c1ccc(Cl)c(NS(=O)(=O)c2ccccc2F)c1 [Compound 22] |  | did not inhibit | no inhibitory effect
